This is an account of results in PMC11281031, “A Machine-Learning-Driven Pathophysiology-Based New Approach Method for the Dose-Dependent Assessment of Hazardous Chemical Mixtures and Experimental Validations” (Toxics, 2024).

Each structure is given as a SMILES string.

Type in all cases: in vivo
The test system of data set [1] is zebrafish embryos. Briefly: Dose-response zebrafish live assay, single chemicals (developmental toxicity). To be noted: for lowest dose causing significant developmental abnormalities (toxic at) / concentration at which embryos were relatively normal / symptoms absent: 2 dpf; for lethal concentration: 100% lethality / lethal by. The method, then:
Dose-dependent toxicities in zebrafish embryos were assessed by the lowest dose that caused significant developmental abnormalities 2 days post-fertilization (2 dpf) in a dose-response live assay. […] Starting with Pyraclostrobin, it was identified as toxic at 30 nM. It induced developmental delays in the embryos without visible deformities. […] It appeared relatively normal at 5 µM. This twitching phenotype indicates specific neuronal toxicity. […] These symptoms were absent at lower concentrations (30 µM), highlighting a dosage-sensitive relationship.
(§1) First, the toxicity of single chemicals in zebrafish embryos is determined. Using the toxicity data of single chemicals as a baseline, we screened mixtures for altered activity and characterized the optimal concentration ratios of components. For chemical treatments, 1000× working stocks are prepared in DMSO. Dechorionated zebrafish embryos, […], are placed in 0.5 mL of fish water (0.3 g/L sea salt) in 24-well plates. The 1000× stock solution of chemicals is diluted to 2× in fish water with 2% DMSO added. Then, 0.5 mL of the 2× diluted chemical solution is added to the 0.5 mL of fish water containing the embryos to achieve a final concentration of 1× compound in 1% DMSO.
Figure 9 Dose-dependent toxicity assessment of AI-CPTM predicted chemicals (Table 1, Table 2, Table 3 and Table 4) as the lowest dose leading to, what is defined here, as significant developmental abnormalities at 2 days post-fertilization (2 dpf) in a dose-response zebrafish live assay.
We assessed individual chemicals for developmental toxicity, indicating any disruption in embryonic development from 1 to 4 days post-fertilization (dpf). Embryos are exposed to chemicals in their bath water from 1 dpf to 4 dpf, without changing the water during exposure. Initially, chemicals are screened by testing them at a series of concentrations increasing by half-log steps. […] Each embryo is assigned a score reflecting the severity of observed phenotypes, with the average score representing the group. The EC50 for developmental toxicity is defined as a score of five on this teratogenicity scale (Figure 10 and Supplementary Material S2). Once the effective range is identified, the EC50 is determined by testing a linear series of concentrations spanning from non-toxic to toxic levels. For chemicals not toxic at 10 µM, tests are extended up to 200 µM, with those showing no effects at this level considered non-toxic.

Data set [2] has as its system zebrafish embryos. Briefly: Zebrafish-embryo mixture toxicity, mixed chemical phenotype score and interaction. The settings on record: with DMSO, max 20 = normal. The method, then: as §1
Figure 10 Mixed chemical phenotypes and how they are scored. The mixed chemical phenotype score is the sum of the scores for the five individual fish in a well. Two wells were treated per chemical combination, and the scores are averaged for the wells. Scoring was as follows: dead = 0; severely deformed = 1; deformed = 2; slightly deformed = 3; and normal phenotypes = 4.
We tested the top 300 chemical mixtures, as prioritized by AI-CPTM, which were randomly selected and readily purchasable, on zebrafish embryos. […] We then compared the toxicity predictions made by the machine-learning model with the results obtained from the zebrafish assays.
The EC50, indicating the median effective concentration for developmental toxicity, is determined using morphological criteria. Fish are identified by date and well number (Figure 10). In each well containing five fish, the mixed compound phenotype score is the sum of the scores for the individual fish. Two wells are treated per combination, and the scores are averaged across these wells (Supplementary Material S2). Scoring follows this scale: dead = 0; severely deformed = 1; deformed = 2; slightly deformed = 3; normal phenotypes = 4. […] The EC50 and lowest observable effect concentration (LOEC) for binary mixtures are determined by testing a linear concentration series of the first chemical against five concentrations of the second chemical, including a vehicle control.

The test system of data set [3] is zebrafish embryos. Nature of the data set: PFOS/PFOA zebrafish-embryo lethality (LD50), sub-lethal effects (EC50) and mixture survival assay. To be noted: for LD50: embryos exposed at 2 dpf for 24 h at 33 °C, average of three experiments; for EC50: sub-lethal adverse effects, exposed at 2 dpf for 24 h at 33 °C. The text has this: The methodology for assessing the toxicity in zebrafish is detailed in our earlier publication. The data presented in Table 3 and Table 4 and Figure 12 show the acute and sub-lethal toxicity of PFOS and PFOA individually and in combination with zebrafish embryos. This initial study offered a comparative insight into their toxic profiles in terms of lethal (LD50) and effective (EC50) concentrations, which are important for measuring their toxic effects. […] These concentrations reflect the exposure of zebrafish embryos to PFOS and PFOA at 2 days post-fertilization (dpf) for one day at a temperature of 33 °C. […] These effects include severe developmental abnormalities, such as bent body axis, edema, cloudy tissue formation, and developmental delays, signaling significant toxicity even at lower concentrations.
We explored further the combined effects of PFOS and PFOA, as shown in Table 4 and Figure 12, to examine how varying concentrations of PFOS affect the LD50 of PFOA in a mixture. The LD50 is the dose at which 50% of the embryos are dead. […] A five dose-response curve for PFOA was tested against three fixed concentrations, 68 µM, 38 µM, and 22 µM of PFOS at 2 dpf for one day at 33 °C. […] Nonetheless, as each experiment is internally controlled, relative toxicity and mixture interactions are accurately detected.
PFOS requires a lower concentration to be lethal and affects development at much lower concentrations compared to PFOA. […] Five concentrations of PFOA were tested to generate the dose-response curves. […] Overall, these experiments support predictions of AI-CPTM toxicity and chemical interaction effects.

[4] abbreviates: single chemical, tested up to 200 µM.

For the compound `O=C(OC1CCCCC1)c1ccccc1C(=O)OC1CCCCC1` [Dicyclohexyl Phthalate, Dicyclohexyl Phthalate (DCHP)], the “effect on embryo development (Figure 11)” value with zebrafish embryos [1] (at 200 µm) was “marked malformations and growth retardation”. For the same compound, the “lowest dose causing significant developmental abnormalities (toxic at)” value in the data set on zebrafish embryos [1] (setting [4]) is on record as 200 µM. Further, the “phenotype score of single chemical (Average / Compound #1 / Compound #2 phenotype score)” value in the data set with zebrafish embryos [2] (100 µM) amounted to 20. Besides, the “phenotype score of single chemical (Average phenotype score)” value in the data set with zebrafish embryos [2] (200 µM) was 20.
With `CC(CNCc1ccccc1O)NCc1ccccc1O` (stereo not drawn) [Motor fuel oil, Alpha, alpha’-(1-methylethylenediimino)di-ortho-cresol], in the data set with zebrafish embryos [1] (single chemical), the “concentration at which embryos were relatively normal / symptoms absent” value came to 1000 nM and the lethal concentration worked out at 10 µM. Further, the “lowest dose causing significant developmental abnormalities (toxic at)” value in the data set with zebrafish embryos [1] (setting [4]) is on record as 5 µM. Moreover, the “phenotype score of single chemical (Average / Compound #1 / Compound #2 phenotype score)” value in the data set on zebrafish embryos [2] (2.5 µM) came out at 16. For the same compound, the “phenotype score of single chemical (Average / Compound #1 / Compound #2 phenotype score)” value with zebrafish embryos [2] (5 µM) is listed as 6.
Consider `COc1nc(C)nc(NC(=O)NS(=O)(=O)c2ccccc2OCCCl)n1` [Triasulfuron], for which the “lowest dose causing significant developmental abnormalities (toxic at)” value in the data set with zebrafish embryos [1] (setting [4]) is listed as above 200 µM.
Consider `O=C(O)C(F)(F)C(F)(F)C(F)(F)C(F)(F)C(F)(F)C(F)(F)C(F)(F)F` [PFOA, Perfluorooctanoic acid (PFOA)], for which, in the data set with zebrafish embryos [3], the LD50 stood at 187.5 µM and the EC50 was determined as 29.5 µM.
On to `CCCCC(CC)COC(=O)c1ccccc1C(=O)OCC(CC)CCCC` (stereo not drawn) [Bis-(2-Ethylhexyl) Phthalate], for which the “effect on embryo development (Figure 11)” value in the data set with zebrafish embryos [1] (at 200 µm) is reported as “pronounced deformities”. Further, in the data set with zebrafish embryos [1] (setting [4]), the “lowest dose causing significant developmental abnormalities (toxic at)” value was above 200 µM.
In the case of `CC(C)(C)[C@@H](O)[C@@H](Cc1ccc(Cl)cc1)n1cncn1` (racemic) [Paclobutrazol], in the data set on zebrafish embryos [1] (single chemical), the “concentration at which embryos were relatively normal / symptoms absent” value was 30000 nM. Further, the “lowest dose causing significant developmental abnormalities (toxic at)” value with zebrafish embryos [1] (setting [4]) stood at 50 µM. Besides, the “phenotype score of single chemical (Average / Compound #1 / Compound #2 phenotype score)” value with zebrafish embryos [2] (50 µM) worked out at 17.5; in the data set with zebrafish embryos [2] (100 µM), 20.
Turning to `CC1(C)C(C=C(Cl)Cl)C1C(=O)OC(C#N)c1ccc(F)c(Oc2ccccc2)c1` (stereo not drawn) [Baythroid], the “effect on embryo development (Figure 11)” value in the data set on zebrafish embryos [1] (at 200 µm) is on record as “pronounced deformities”. Moreover, the “lowest dose causing significant developmental abnormalities (toxic at)” value in the data set on zebrafish embryos [1] (setting [4]) is given as 20 µM.
On to `CC(C)=CC1C(C(=O)OCN2C(=O)C3=C(CCCC3)C2=O)C1(C)C` (stereo not drawn) [Tetramethrin], for which the “effect on embryo development (Figure 11)” value in the data set on zebrafish embryos [1] (at 200 µm) is recorded as “pronounced deformities”. Further, in the data set with zebrafish embryos [1] (setting [4]), the “lowest dose causing significant developmental abnormalities (toxic at)” value is reported as 5 µM. The “phenotype score of single chemical (Average / Compound #1 / Compound #2 phenotype score)” value in the data set on zebrafish embryos [2] (5 µM) amounted to 20. Also, in the data set on zebrafish embryos [2] (10 µM), the “phenotype score of single chemical (Average phenotype score)” value stood at 15.
In the case of `CCCCOCN(C(=O)CCl)c1c(CC)cccc1CC` [Butachlor], the “effect on embryo development (Figure 11)” value in the data set with zebrafish embryos [1] (at 200 µm) is “pronounced deformities”. Besides, the “concentration at which embryos were relatively normal / symptoms absent” value with zebrafish embryos [1] (single chemical) turned out to be 100000 nM. Further, the “lowest dose causing significant developmental abnormalities (toxic at)” value in the data set with zebrafish embryos [1] (setting [4]) is on record as 200 µM. Further, the “phenotype score of single chemical (Average / Compound #1 / Compound #2 phenotype score)” value with zebrafish embryos [2] (100 µM) is 16. In the data set on zebrafish embryos [2] (200 µM), the “phenotype score of single chemical (Average phenotype score)” value was 0.
For the compound `COCc1cnc(C2=NC(C)(C(C)C)C(=O)N2)c(C(=O)O)c1` (stereo not drawn) [Imazamox], the “effect on embryo development (Figure 11)” value in the data set on zebrafish embryos [1] (at 200 µm) was “marked malformations and growth retardation”. For the same compound, the “lowest dose causing significant developmental abnormalities (toxic at)” value in the data set on zebrafish embryos [1] (setting [4]) is above 200 µM.
As to `COc1cnc(OC)n2nc(NS(=O)(=O)c3c(OCC(F)F)cccc3C(F)(F)F)nc12` [Penoxsulam], the “effect on embryo development (Figure 11)” value in the data set on zebrafish embryos [1] (at 200 µm) is listed as “moderate deformities”. For the same compound, the “lowest dose causing significant developmental abnormalities (toxic at)” value in the data set with zebrafish embryos [1] (setting [4]) is above 200 µM.
Turning to `COC(=O)N(OC)c1ccccc1COc1ccn(-c2ccc(Cl)cc2)n1` [Pyraclostrobin], the results for the “effect on embryo development (Figure 11)” value with zebrafish embryos [1] (at 30 nm) and with zebrafish embryos [1] (at 200 µm) were “minimal effects” and “significant embryonic damage”, respectively. Besides, in the data set on zebrafish embryos [1] (single chemical), the “concentration resulting in embryo lysis” value was 100 nM. Besides, the “lowest dose causing significant developmental abnormalities (toxic at)” value in the data set with zebrafish embryos [1] (single chemical) was 0.03 µM. Also, the “phenotype score of single chemical (Average / Compound #1 / Compound #2 phenotype score)” value with zebrafish embryos [2] (0.01 µM) is 20. Besides, the “phenotype score of single chemical (Average phenotype score)” value with zebrafish embryos [2] (0.02 µM) was 20.
For `CC1(C)C(C(=O)OC(C#N)c2cccc(Oc3ccccc3)c2)C1(C)C` (stereo not drawn) [Fenpropathrin], the “concentration at which embryos were relatively normal / symptoms absent” value in the data set with zebrafish embryos [1] (single chemical) came to 5000 nM. For the same compound, the “lowest dose causing significant developmental abnormalities (toxic at)” value in the data set with zebrafish embryos [1] (setting [4]) came to 10 µM. Also, the “phenotype score of single chemical (Average / Compound #1 / Compound #2 phenotype score)” value in the data set with zebrafish embryos [2] (5 µM) is listed as 10. Further, in the data set with zebrafish embryos [2] (10 µM), the “phenotype score of single chemical (Average phenotype score)” value is 0.
As for `CC(C)(C)c1ccc(CSc2cnn(C(C)(C)C)c(=O)c2Cl)cc1` [Pyridaben], the “effect on embryo development (Figure 11)” value with zebrafish embryos [1] (at 50 nm) was “noticeable developmental delays and morphological abnormalities”. Besides, in the data set with zebrafish embryos [1] (single chemical), the “concentration causing developmental stalling at the 8-somite stage” value was determined as 100 nM and the “lowest dose causing significant developmental abnormalities (toxic at)” value was 0.05 µM. Besides, the “phenotype score of single chemical (Average / Compound #1 / Compound #2 phenotype score)” value in the data set with zebrafish embryos [2] (0.05 µM) turned out to be 20. In addition, in the data set with zebrafish embryos [2] (0.1 µM), the “phenotype score of single chemical (Average phenotype score)” value came out at 18.5.
As to `Oc1c(Br)cc(Br)cc1Br` [2,4,6-Tribromophenol], the “lowest dose causing significant developmental abnormalities (toxic at)” value in the data set on zebrafish embryos [1] (setting [4]) is on record as 2 µM. For the same compound, the lethal concentration in the data set on zebrafish embryos [1] (single chemical) was found to be 10 µM. Besides, the “phenotype score of single chemical (Average / Compound #1 / Compound #2 phenotype score)” value with zebrafish embryos [2] (2 µM) came out at 14. Further, in the data set on zebrafish embryos [2] (4 µM), the “phenotype score of single chemical (Average phenotype score)” value is 0.
`CC/C(=N\OC/C=C/Cl)C1=C(O)CC(C2CCOCC2)CC1=O` (stereo not drawn) [Tepraloxydim]: the “effect on embryo development (Figure 11)” value in the data set with zebrafish embryos [1] (at 200 µm) is “moderate deformities”. Moreover, the “lowest dose causing significant developmental abnormalities (toxic at)” value with zebrafish embryos [1] (setting [4]) was above 200 µM.
For `O=S(=O)(O)C(F)(F)C(F)(F)C(F)(F)C(F)(F)C(F)(F)C(F)(F)C(F)(F)C(F)(F)F` [PFOS, Perfluorooctane sulfonic acid (PFOS)], the survival with zebrafish embryos [3] (68 μM PFOS, 0 μM PFOA) was found to be 100%. Further, in the data set on zebrafish embryos [3], the LD50 amounted to 53 µM and the EC50 came out at 11 µM.
